Laboratory results from ChEMBL document CHEMBL1201862, “PubChem BioAssay data set” (2004).
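Cells were grown in 96-well plates and exposed to each compound for 48 hours at five concentrations; endpoints were interpolated linearly between bracketing concentrations, or set to the highest concentration if not reached. GI50 is the concentration that inhibits growth by half.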 Calls of active or inactive are those of the source. Rule as the data show it: active = GI50 up to about 1.1 µM and inactive = higher.

How the values were obtained:
Assay in all cases: growth of human tumour cells (NCI), 48 h
DLD-1 = tested on: DLD-1
DMS-114 = tested on: DMS-114
DMS-273 = tested on: DMS-273
HOP-18 = tested on: HOP-18
KM-20L2 = tested on: KM-20L2
LXFL 529 = tested on: LXFL 529
RXF 631 = tested on: RXF 631
SNB-78 = tested on: SNB-78
XF498 = tested on: XF498

Measured: GI50

O=P(O)(NCCCl)NCCCl [PALIFOSFAMIDE]
inactive: DLD-1 > 10 µM | DMS-114 7.33 µM | DMS-273 40 µM | HOP-18 > 10 µM | KM-20L2 > 10 µM | LXFL 529 > 10 µM | RXF 631 > 100 µM | SNB-78 > 10 µM | XF498 > 10 µM
